Data reported in PMC4861708 (Frontiers in Cell and Developmental Biology, 2016).
≈ marks a conversion by molar mass, not a printed value. Like-named read-outs stand apart in the source and are kept apart here. Where a SMILES comes first, the peptide text is derived from it. [ ]: non-standard residue; d: D form. The star is where a group is joined. Orn(α-tetramethylguanidino) = CN(C)C(=N[C@@H](CCCN)C(=O)*)N(C)C; Orn = NCCC[C@H](N)C(=O)O

What was measured:
human erythrocytes = experiment: Hemolysis assay; assay type: cell-based; conditions: 0.1 g/L peptide, 1 h
Protocol: Human EDTA blood (S-Monovette® with potassium-EDTA Sarstedt AG, Nümbrecht, Germany) was centrifuged (3 min, 300 × g, 4°C) and blood cells were washed three times using the 10-fold volume of cold PBS. The diluted blood cell suspension (2% v/v in PBS, 50 μL) was mixed with a peptide solution (1.2 or 0.2 g/L in PBS, 50 μL) or triton X-100 (1%, v/v in PBS; control) in 96-well plates (PP, V-bottom). After incubation under constant shaking (1 h, 37°C, 300 rpm, Eppendorf Thermomixer) the suspension was centrifuged (3 min, 4°C, 1000 × g) and the OD405 of the supernatant was measured in a 384-well plate (PS, flat bottom, Paradigm microplate reader, Molecular Devices, Sunnyvale, USA). The hemolytic grade (HG) was calculated as [(ODPeptide−ODPBS)/(ODTriton−ODPBS)] × 100%.

HEK293 cells [1] = experiment: in vitro; assay type: cell-based, human; conditions: 24 h
Protocol: (§1) Human embryonic kidney (HEK293) and HeLa cells were cultured in Dulbecco's modified Eagle's/Ham's F-12 medium [DMEM/F-12 (1:1)] supplemented with FBS (10% v/v), penicillin, and streptomycin (1000 units each). Primary rat cardiomyocytes (Innoprot, Elexalde Derio, Spain) were grown in medium supplemented with FBS (20% v/v), horse serum (5% v/v), L-glutamine (2 mmol/L), sodium pyruvate (2 mmol/L), MEM non-essential amino acids (Gibco, 0.1 mmol/L), penicillin, and streptomycin (1000 units each). Surfaces for cardiomyocyte growth were coated with attachment factor first. Cells (20,000/well) were seeded into a 96-well plate (PS, sterile, flat bottom), incubated for 24 h (37°C, 5% CO2), and washed twice with PBS (100 μl/well) prior to adding colorless medium (88 μL) and peptide solution (12 μL; 5, 2.5, 1.25, […], and 0.625 g/L in PBS). Positive controls were triton X-100 (1%, v/v) and melittin (60 mg/L) as lytic peptide, whereas PBS (12%, v/v) served as negative control. After an incubation period of 24 h, supernatant (25 μL) was mixed with lactate dehydrogenase (LDH) substrate (175 μL; 0.57 mmol/L sodium pyruvate, 0.24 mmol/L NADH disodium salt, 32 mmol/L potassium dihydrogen phosphate, 66 mmol/L dipotassium phosphate) in 96-well plates (PS, sterile, flat bottom). Absorbance was recorded at 340 nm every 3 min for 30 min on the Paradigm microplate reader. Due to the total release of LDH upon triton X-100 treatment, the control contained high LDH concentrations resulting in a fast substrate turnover that was only linear for the first 6 min.
(§2) The MTT cell viability assay relied on the same cell culture. Remaining medium was replaced by a mixture of fresh colorless medium (100 μL) and MTT (10 μL; 5 g/L in PBS) and incubated for 4 h (37°C, 5% CO2). A solution of sodium dodecyl sulfate (100 μL; 10%, w/v) dissolved in hydrochloric acid (10 mmol/L) was added, incubated (16 h), and the absorbance recorded at 590 nm relative to the reference at 650 nm (Paradigm microplate reader). The relative cell viability was calculated by [(ODPeptide − ODTriton)/(ODPBS − ODTriton)] × 100% and half-maximal inhibitory concentrations (IC50) with an Excel-template from cell biology protocols (www.sciencegateway.org/ protocols/cellbio/drug/hcic50.htm). For statistical analysis an unpaired t-test was applied using GraphPad Prism 5.0.

HeLa cells = assay type: cell-based; conditions: 24 h
Protocol: as §1, with “Due to the total release of LDH upon triton X-100 treatment, the control contained high LDH concentrations resulting in a fast substrate turnover that was only linear for the first 6 min.” left out

in vitro [2] = conditions: mouse, mouse serum
Protocol: Peptide solutions (1 g/L) were added to mouse serum to obtain final concentrations of 70 mg/L peptide and incubated under constant shaking at 37°C. After 0, 1, 2, 3, and 6 h aliquots (95 μL) were precipitated with aqueous TCA (25 μL, 15% w/v), incubated for 10 min on ice, and centrifuged (5 min, 12,000 × g, Eppendorf mini spin centrifuge). An aliquot of the supernatant (95 μL) was neutralized with sodium hydroxide (8 μL, 1 mol/L) and diluted with aqueous acetonitrile solution (3% acetonitrile, 0.1% TFA; 200 μL). Peptides were quantified by the peak areas obtained by analytical RP-HPLC on a Jupiter C18-column (ID: 2 mm) using a linear aqueous acetonitrile gradient with 0.1% (v/v) TFA (absorbance recorded at 214 nm). Peak areas of all time points were normalized to the initial peak area obtained after “0 min incubation” (= 100%). Experiments were carried out as triplicates in parallel and half-life times were calculated using GraphPad Prism 5.0.

[3] = Quartz crystal microbalance, membrane interaction; assay type: binding
Protocol: Data were acquired with the Q-Sense E4 system (Q-sense, Sweden using polished, gold-coated, AT-cut quartz sensors with a fundamental frequency of ca. 5 MHz (Q-Sense, Västra Frölunda, Sweden) (Mechler et al., [2007]; McCubbin et al., [2011]). Briefly, sensors were cleaned with hydrogen peroxide (6% w/v) and aqueous ammonia (5.6% w/v) for 20 min (70–75°C), washed with water, and then activated with 3-mercaptopropionic acid (1 mmol/L in isopropanol) overnight. Liposomes consisting of DMPC and DMPG (molar ratio of 4:1) were deposited onto the sensors, washed with “high salt” PBS (20 mmol/L potassium phosphate, 0.1 mol/L NaCl, pH 6.9) and then with “low salt” PBS (10 mmol/L potassium phosphate, 30 mmol/L NaCl, pH 6.9). The system was equilibrated at 19.1 ± 0.1°C with “high salt” PBS, prior to the introduction of peptide solutions (2; 5; 10 and 20 μmol/L, 1 mL each in “high salt” PBS) at a flow rate of 50 μL/min over 20 min followed by an incubation, without any flow. Afterwards the “high salt” PBS was again introduced at 300 μL/min to determine if any surface materials could be removed from the sensor. Changes in the sensor frequency (Δf) and dissipation (ΔD) were monitored for the third, fifth, seventh, and ninth harmonic using Q-Soft (Q-Sense) and analyzed using Origin 8 software.

in vitro [4] = assay type: cell-based, human; conditions: human
Protocol: as §1, §2

HEK293 cells [5] = tested on: HEK293 cells; parameters: method as in Berthold et al., 2013; Bluhm et al., 2015; conditions: ref Berthold et al., 2013, Bluhm et al., 2015; cited from earlier work
[6] = Half-life time against serum proteases, serum (abstract)
[7] = Half-life time mouse serum, 37°C

Compound | Hemolytic grade (human erythrocytes) | IC50 on cell viability (HEK293 cells [1]) | EC50 of LDH release (HeLa cells) | half-life at 70 mg/L (in vitro [2]; [6]) | half-life at 70 mg/L (in vitro [2]; [7]) | QCM Δf (peptide insertion) ([3]; 2 μmol/L, DMPC:DMPG 4:1) | QCM Δf (peptide insertion) ([3]; 5, 10, and 20 μmol/L, DMPC:DMPG 4:1) | viability at 24 h, 0.6 g/L (in vitro [4]) | QCM change in dissipation (ΔD) ([3]; 2-20 μmol/L, incubation period ii) | QCM frequency loss upon washing with PBS buffer ([3]; period iii, DMPC:DMPG 4:1) | IC50 on cell viability (HEK293 cells [5])
CC(C)C[C@H](NC(=O)[C@H](CCCNC(=N)N)NC(=O)[C@@H]1CCCN1C(=O)[C@H](Cc1c[nH]cn1)NC(=O)[C@@H]1CCCN1C(=O)[C@@H]1CCCN1C(=O)[C@H](CCCNC(=N)N)NC(=O)[C@@H]1CCCN1C(=O)[C@H](CCCNC(=N)N)NC(=O)[C@@H]1CCCN1C(=O)[C@H](CCCN)NC(=O)[C@H](Cc1ccc(O)cc1)NC(=O)[C@@H](NC(=O)[C@@H]1CCCN1C(=O)[C@H](CCCNC(=N)N)NC(=O)[C@H](CCCN)NC(=O)[C@H](Cc1c[nH]c2ccccc12)NC(=O)[C@H](CCCN)NC(=O)[C@H](Cc1c[nH]c2ccccc12)NC(=O)[C@H](CCCN)NC(=O)[C@H](Cc1c[nH]c2ccccc12)NC(=O)[C@H](CCCN)N=C(N(C)C)N(C)C)C(C)C)C(=O)O [Api794, gu-O(WO)3RPVYOPRPRPPHPRL-OH] ({Orn(α-tetramethylguanidino)}-W[Orn]W[Orn]W[Orn]RPVY[Orn]PRPRPPHPRL-OH) | 1.7 ± 0.2% | 280 ± 30 µg/mL (≈ 94.4 µM) | 560 ± 160 µg/mL | > 5 h | 5.18 h |  |  |  |  |  | 
CC[C@H](C)[C@H](NC(=O)[C@H](CCCN)N=C(N(C)C)N(C)C)C(=O)N[C@@H](CCCN)C(=O)N[C@H](C(=O)N[C@@H](CCCN)C(=O)N[C@@H](CCCNC(=N)N)C(=O)N1CCC[C@H]1C(=O)N[C@H](C(=O)N[C@@H](Cc1ccc(O)cc1)C(=O)N[C@@H](CCCN)C(=O)N1CCC[C@H]1C(=O)N[C@@H](CCCNC(=N)N)C(=O)N1CCC[C@H]1C(=O)N[C@@H](CCCNC(=N)N)C(=O)N1CCC[C@H]1C(=O)N1CCC[C@H]1C(=O)N[C@@H](Cc1c[nH]cn1)C(=O)N1CCC[C@H]1C(=O)N[C@@H](CCCNC(=N)N)C(=O)N[C@@H](CC(C)C)C(=O)O)C(C)C)[C@@H](C)CC [Api795, gu-O(IO)2RPVYOPRPRPPHPRL-OH] ({Orn(α-tetramethylguanidino)}-I[Orn]I[Orn]RPVY[Orn]PRPRPPHPRL-OH) |  | >600 µg/mL |  | > 5 h | 5.9 h | 9 Hz | 6 Hz | ~60% |  |  | 
CC[C@H](C)[C@H](NC(=O)[C@H](Cc1ccc(O)cc1)NC(=O)[C@@H](NC(=O)[C@@H]1CCCN1C(=O)[C@H](CCCNC(=N)N)NC(=O)[C@H](CC(N)=O)NC(=O)[C@H](CC(N)=O)NC(=O)[C@H](CCCN)N=C(N(C)C)N(C)C)C(C)C)C(=O)N1CCC[C@H]1C(=O)N[C@@H](CCCNC(=N)N)C(=O)N1CCC[C@H]1C(=O)N[C@@H](CCCNC(=N)N)C(=O)N1CCC[C@H]1C(=O)N1CCC[C@H]1C(=O)N[C@@H](Cc1c[nH]cn1)C(=O)N1CCC[C@H]1C(=O)N[C@@H](CCCNC(=N)N)C(=O)N[C@@H](CC(C)C)C(=O)O [Api137, gu-ONNRPVYIPRPRPPHPRL-OH, reference compound] ({Orn(α-tetramethylguanidino)}-NNRPVYIPRPRPPHPRL-OH) |  |  |  |  |  |  |  | 83 ± 3% | No change | ~ 2 Hz | >600 µg/mL
